Literature values as cited in patent US20040235935A1, “Oral pharmaceutical composition containing a statin derivative” (priority 2001, published 2004).
Converted amounts (≈) assume the structure as drawn. Like-named read-outs stand apart in the source and are kept apart here.

What was measured:
[1] = not given; remark: listed apart in the source
[2] = not given; remark: listed apart in the source
[3] = for Vsol = volume of water required to completely dissolve a 20 mg dose: solubility at pH 5
[4] = healthy humans, oral dose 40 mg
[5] = healthy humans, oral dose 20 mg

Structure (SMILES) | pKa | Solubility in water ([3]; at pH 5) [g/L] | AUC = area under plasma concentration-time curve [1, 5] [µg·h/L] | Cmax = maximum plasma drug concentration [1, 5] [µg/L] | Vsol = volume of water required to completely dissolve a 20 mg dose [3] | further results
CCC(C)C(=O)OC1CC(C)C=C2C=CC(C)C(CCC(O)CC(O)CC(=O)[O-])C21.[Na+] (stereo not drawn) [Lovastatin Hydroxy acid] | 5.5 | – | – | – | – | tmax = time to Cmax ([1]; human, in vivo, po, 20 mg): 2.8 h; fa = fraction of the administered dose absorbed ([1]; in vivo): ˜31%
CCC(C)(C)C(=O)O[C@H]1C[C@@H](C)C=C2C=C[C@H](C)[C@H](CC[C@@H](O)C[C@@H](O)CC(=O)O)[C@H]21 [Simvastatin Hydroxy acid] | 5.5 | – | – | – | – | times more readily dissolved in octanol than in water ([2]; from the partition coefficients at pH 7): 126 times; AUC = area under plasma concentration-time curve [1, 4]: 58.1 µg·h/L; Cmax = maximum plasma drug concentration [1, 4]: 58.1 µg/L
CC[C@H](C)C(=O)O[C@H]1C[C@H](O)C=C2C=C[C@H](C)[C@H](CC[C@@H](O)C[C@@H](O)CC(=O)O)[C@H]21 [Pravastatin Hydroxy acid, pravastatin] | 5.5 | 300 (≈ 707000 µM) | 90.2 | 38.4 | – | EH = liver extraction ratio ([1]; healthy humans): 45%; fa = fraction of the administered dose absorbed ([1]; healthy humans): ˜34%
CC(C)n1c(/C=C/C(O)CC(O)CC(=O)O)c(-c2ccc(F)cc2)c2ccccc21 (stereo not drawn) [Fluvastatin, fluvastatin] | 5.5 | – | 167 | 181 | – | Solubility in water ([3]; at pH 6): 2 g/L (≈ 4860 µM); Peff = effective membrane permeability ([1]; healthy humans): 0.00024 cm/s; F = bioavailability ([1]; healthy humans, oral): 10-35%
CC[C@H](C)C(=O)O[C@H]1C[C@@H](C)C=C2C=C[C@H](C)[C@H](CC[C@@H]3C[C@@H](O)CC(=O)O3)[C@H]21 [Lovastatin Lactone, lovastatin] | – | 0.0013 (≈ 3.21 µM) | – | – | 15 385 ml | D = partition coefficient (logarithm of partition ratio between octanol and water at pH 7) ([2]; pH 7): 4.3
CC[C@H](C)C(=O)O[C@H]1C[C@H](O)C=C2C=C[C@H](C)[C@H](CC[C@@H]3C[C@@H](O)CC(=O)O3)[C@H]21 [Pravastatin Lactone] | – | 0.18 (≈ 443 µM) | – | – | 111 mL | –
